In PubChem BioAssay AID248 (DTP/NCI, 2004):
Values joined by “and” are separate entries in the source; they are usually repeats but may differ in a detail not shown here. Equal entries are not always repeated. Toxic doses and inconclusive results are not listed. Cut-off read from the data, not from the text of the source: active = T/C of 150% or more; inactive = T/C below 125%.

System: L1210 leukemia ip in BDF1 mice, survival T/C
Assay: NCI In Vivo Anticancer Drug Screen. Data for tumor model L1210 Leukemia (intraperitoneal) in B6D2F1 (BDF1) mice
Conditions: endpoint: mean survival time, higher = longer survival
In short: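 Transplantable tumor model; survival measured in treated vs vehicle control mice. Value = treated/control.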

[1] = dose: 6.25 mg/kg/injection, schedule: Q01DX009 (ip), vehicle: saline
[2] = dose: 12.5 mg/kg/injection, schedule: Q01DX009 (ip), vehicle: saline
[3] = dose: 25.0 mg/kg/injection, schedule: Q01DX009 (ip), vehicle: saline
[4] = dose: 25.0 mg/kg/injection, schedule: Q04DX003 (ip), vehicle: saline
[5] = dose: 50.0 mg/kg/injection, schedule: Q01DX009 (ip), vehicle: saline
[6] = dose: 50.0 mg/kg/injection, schedule: Q04DX003 (ip), vehicle: saline
[7] = dose: 100.0 mg/kg/injection, schedule: Q04DX003 (ip), vehicle: saline
[8] = dose: 100.0 mg/kg/injection, schedule: Q01DX009 (ip), vehicle: Klucel (hydroxypropylcellulose) (HPC)
[9] = dose: 200.0 mg/kg/injection, schedule: Q01DX009 (ip), vehicle: Klucel (hydroxypropylcellulose) (HPC)
[10] = dose: 100.0 mg/kg/injection, schedule: Q01DX001 (ip), vehicle: carboxymethylcellulose (CMC)
[11] = dose: 200.0 mg/kg/injection, schedule: Q01DX001 (ip), vehicle: carboxymethylcellulose (CMC)
[12] = dose: 400.0 mg/kg/injection, schedule: Q01DX001 (ip), vehicle: carboxymethylcellulose (CMC)
[13] = dose: 100.0 mg/kg/injection, schedule: Q01DX001 (ip), vehicle: saline
[14] = dose: 200.0 mg/kg/injection, schedule: Q01DX001 (ip), vehicle: saline
[15] = dose: 400.0 mg/kg/injection, schedule: Q01DX001 (ip), vehicle: saline
[16] = dose: 75.0 mg/kg/injection, schedule: Q01DX001 (ip), vehicle: saline

Measured: T/C

OCCN1CCN(CCCN2c3ccccc3C=Cc3ccccc32)CC1
inactive: [1] 93 % of control | [2] 93 % of control | [3] 95 % of control | [4] 93 % of control | [5] 102 % of control | [6] 98 % of control | [7] 102 % of control

CC[CH2][Sn]([Cl])([Cl])[CH2]CC
inactive: dose: 0.13 mg/kg/injection, schedule: Q01DX009 (ip), vehicle: saline 98 % of control | dose: 0.25 mg/kg/injection, schedule: Q01DX009 (ip), vehicle: saline 112 % of control | dose: 0.5 mg/kg/injection, schedule: Q01DX009 (ip), vehicle: saline 105 % of control and 108 % of control | dose: 1.0 mg/kg/injection, schedule: Q01DX009 (ip), vehicle: saline 101 % of control | dose: 2.0 mg/kg/injection, schedule: Q01DX009 (ip), vehicle: saline 101 % of control | dose: 4.0 mg/kg/injection, schedule: Q01DX009 (ip), vehicle: saline 104 % of control

O=C(O)/C=C/C(=O)Nc1ccc(Cl)cc1C(=O)c1ccccc1
inactive: [8] 101 % of control | [9] 98 % of control

CC1(CCOCc2ccccc2)NC(=O)N(CCC#N)C1=O (centres undefined)
inactive: dose: 50.0 mg/kg/injection, schedule: Q01DX001 (ip), vehicle: carboxymethylcellulose (CMC) 102 % of control | [10] 94 % of control | [11] 94 % of control | [12] 91 % of control

COC(=O)/C=C(\C)Nc1cc(OC)ccc1OC
inactive: [13] 94 % of control | [14] 87 % of control | [15] 92 % of control

C=COC(=O)NC(C(=O)O)C(C)CC (centres undefined)
inactive: [16] 111 % of control | dose: 150.0 mg/kg/injection, schedule: Q01DX001 (ip), vehicle: saline 103 % of control

COc1cc(CN(C)C2CCCCC2)cc(OC)c1OC
inactive: [1] 103 % of control | [2] 103 % of control | [3] 100 % of control | [4] 97 % of control | [5] 94 % of control | [6] 103 % of control | dose: 100.0 mg/kg/injection, schedule: Q01DX009 (ip), vehicle: saline 90 % of control | [7] 100 % of control

CC1(C)OCC(C2OC(=O)C=C2OS(=O)(=O)O)O1 (centres undefined)
inactive: [16] 95 % of control

Cc1ccc(S(=O)(=O)/C=C(/I)C(=O)c2ccccc2)cc1
inactive: [13] 95 % of control | [14] 93 % of control | [15] 95 % of control

O=C1CSCCN1
inactive: [7] 101 % of control | dose: 200.0 mg/kg/injection, schedule: Q04DX003 (ip), vehicle: saline 101 % of control | dose: 400.0 mg/kg/injection, schedule: Q04DX003 (ip), vehicle: saline 98 % of control

O=C1CC(Cc2n[nH]c3c2CCCC3)CC(=O)N1
inactive: [10] 100 % of control | [11] 95 % of control | [12] 95 % of control

CCN(CC)C(=O)Nc1cccc(N)c1
inactive: dose: 100.0 mg/kg/injection, schedule: Q04DX002 (ip), vehicle: Klucel (hydroxypropylcellulose) (HPC) 97 % of control | dose: 200.0 mg/kg/injection, schedule: Q04DX002 (ip), vehicle: Klucel (hydroxypropylcellulose) (HPC) 101 % of control | dose: 400.0 mg/kg/injection, schedule: Q04DX002 (ip), vehicle: Klucel (hydroxypropylcellulose) (HPC) 97 % of control

O=C(C[P+](c1ccccc1)(c1ccccc1)c1ccccc1)c1ccc([N+](=O)[O-])cc1
inactive: [13] 105 % of control | [14] 105 % of control | [15] 100 % of control

CC1CN(C(=O)Nc2ccc(Cl)cc2)CC(C)O1 (centres undefined)
inactive: [8] 100 % of control | dose: 100.0 mg/kg/injection, schedule: Q04DX003 (ip), vehicle: Klucel (hydroxypropylcellulose) (HPC) 100 % of control | [9] 101 % of control | dose: 200.0 mg/kg/injection, schedule: Q04DX003 (ip), vehicle: Klucel (hydroxypropylcellulose) (HPC) 89 % of control | dose: 400.0 mg/kg/injection, schedule: Q01DX009 (ip), vehicle: Klucel (hydroxypropylcellulose) (HPC) 113 % of control | dose: 400.0 mg/kg/injection, schedule: Q04DX003 (ip), vehicle: Klucel (hydroxypropylcellulose) (HPC) 97 % of control
